In patent publication US9187426B2, “Organic compounds” (Novartis AG, priority 2008, dated 2015):
Structures can show the parent of a compound that is named as a salt.

Experiments:
[1] = biological target: T1, Stearoyl-CoA Desaturase (SCD1) (Mus musculus, UniProt P13516); experiment: SCD microsomal assay: release of 3H2O from [9,10-3H]stearoyl-CoA in mouse liver microsomes; format: biochemical; details: 15 min incubation, 25° C.
T1 construct: Reactions are started by adding 50 μL of microsomes (1.25 mg/mL); from tissue; host or cells: liver microsomes of male ICR outbred mice on a high-carbohydrate, low-fat diet
T1 sequence (P13516 1-355): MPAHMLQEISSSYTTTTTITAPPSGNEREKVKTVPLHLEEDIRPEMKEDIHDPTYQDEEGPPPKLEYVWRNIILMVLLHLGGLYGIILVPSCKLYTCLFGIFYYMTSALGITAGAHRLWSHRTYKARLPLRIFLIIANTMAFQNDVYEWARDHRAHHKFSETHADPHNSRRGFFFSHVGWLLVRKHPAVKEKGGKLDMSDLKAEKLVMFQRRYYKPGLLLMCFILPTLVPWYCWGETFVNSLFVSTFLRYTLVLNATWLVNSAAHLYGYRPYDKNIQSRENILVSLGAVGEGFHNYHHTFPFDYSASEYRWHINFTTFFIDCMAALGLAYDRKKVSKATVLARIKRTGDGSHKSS
Source text: Measuring Stearoyl-CoA Desaturase Inhibition Activity of a Test Compound Using Mouse Liver Microsomes
The identification of compounds of the invention as SCD inhibitors was readily accomplished using the SCD microsomal assay procedure described in Shanklin J. and Summerville C., Proc. Natl. Acad. Sci. USA (1991), Vol. 88, pp. 2510-2514.
Male ICR outbread mice, on a high-carbohydrate, low fat diet, under light halothane (15% in mineral oil) anesthesia are sacrificed by exsanguination during periods of high enzyme activity. Livers are immediately rinsed with cold 0.9% NaCl solution, weighed and minced with scissors. All procedures are performed at 4° C. unless specified otherwise. Livers are homogenized in a solution (1/3 w/v) containing 0.25 M sucrose, 62 mM potassium phosphate buffer (pH 7.0), 0.15 M KCl, 15 mM N-acetyleysteine, 5 mM MgCl2, and 0.1 mM EDTA using 4 strokes of a Potter-Elvehjem tissue homogenizer. The homogenate is centrifuged at 10,400×g for 20 min to eliminate mitochondria and cellular debris. The supernatant is filtered through a 3-layer cheesecloth and centrifuged at 105,000×g for 60 min. The microsomal pellet is gently resuspended in the same homogenization solution with a small glass/teflon homogenizer and stored at −70° C. The absence of mitochondrial contamination is enzymatically assessed. The protein concentration is measured using bovine serum albumin as the standard.
Desaturase activity is measured as the release of ^3H2O from [9,10-^3H]stearoyl-CoA. Reactions per assay point conditions are as follows: 2 μL 1.5 mM stearoyl-CoA, 0.25 μL 1 mCi/mL ^3H stearoyl CoA, 10 μL 20 mM NADH, 36.75 μL 0.1 M PK buffer (K2HPO4/NaH2PO4, pH 7.2). The test compound or control solution is added in a 1 μL volume. Reactions are started by adding 50 μL of microsomes (1.25 mg/mL). The plates are mixed and after 15 min incubation on a heating block (25° C.), the reactions are stopped by the addition of 10 μL 60% PCA. An aliquot of 100 μL is then transferred to a filter plate pretreated with charcoal and the plate centrifuged at 4000 rpm for 1 minute. The flow through containing the ^3H2O released by the SCD1 desaturation reaction is added to scintillation fluid and the radioactivity measured in a Packard TopCount. The data is analysed to identify the IC50 for test compounds and reference compounds.

IC50 [1] [nM] | melting point [°C] | SMILES
130 | 95 to 96 | COc1cccc(C(=O)Nc2cc(C(=O)NCc3ccccc3)ccn2)c1 [Example 6.4, N-benzyl-2-(3-methoxybenzamido)isonicotinamide]
410 | 185 to 187 | O=C(NCc1ccccc1)c1ccnc(NC(=O)c2cc(F)cc(F)c2)c1 [Example 6.8, N-benzyl-2-(3,5-difluorobenzamido)isonicotinamide]
20 | 160 to 165 | CN(C)c1ccc(C(=O)Nc2cc(C(=O)NCc3ccccc3)ccn2)cc1 [Example 6.11, N-benzyl-2-(4-(dimethylamino)benzamido)isonicotinamide]
170 | 110 to 112 | O=C(Nc1cc(-c2nc(Cc3ccccc3)c[nH]2)ccn1)c1ccccc1 [Example 10.2, N-(4-(4-benzyl-1H-imidazol-2-yl)pyridin-2-yl)benzamide]
200 | 197 to 199 | O=C(NCc1cocn1)c1ccnc(N2CCN(Cc3ccc(F)cc3)C2=O)c1 [Example 14, 2-(3-(4-fluorobenzyl)-2-oxoimidazolidin-1-yl)-N-(oxazol-4-ylmethyl)isonicotinamide]
80 | 169 to 171 | Cc1cnc(CNC(=O)c2ccnc(N3CCN(Cc4ccc(F)cc4)C3=O)c2)cn1 [Example 14.2, 2-(3-(4-fluorobenzyl)-2-oxoimidazolidin-1-yl)-N-((5-methylpyrazin-2-yl)methyl)isonicotinamide]
190 | 174 to 176 | Cn1cnc(CNC(=O)c2ccnc(N3CCN(Cc4ccc(F)cc4)C3=O)c2)c1 [Example 14.5, 2-(3-(4-fluorobenzyl)-2-oxoimidazolidin-1-yl)-N-((1-methyl-1H-imidazol-4-yl)methyl)isonicotinamide]
260 | 153 to 155 | Cc1cc(CNC(=O)c2ccnc(N3CCN(Cc4ccc(F)cc4)C3=O)c2)no1 [Example 14.10, 2-(3-(4-fluorobenzyl)-2-oxoimidazolidin-1-yl)-N-((5-methylisoxazol-3-yl)methyl)isonicotinamide]
70 |  | O=C(NCc1ccccn1)c1ccnc(N2CCN(Cc3ccc(F)cc3)C2=O)c1 [Example 15.3, 2-(3-(4-fluorobenzyl)-2-oxoimidazolidin-1-yl)-N-(pyridin-2-ylmethyl)isonicotinamide dihydrochloride]
20 | 173 to 175 | O=C(NCc1ccc(F)cc1)c1ccnc(N2CCN(Cc3ccc(F)cc3)C2=O)c1 [Example 15.4, N-(4-fluorobenzyl)-2-(3-(4-fluorobenzyl)-2-oxoimidazolidin-1-yl)isonicotinamide]
670 | 160 to 162 | O=C(NCc1ccncc1)c1ccnc(N2CCN(CC3CC3)C2=O)c1 [Example 15.11, 2-(3-(cyclopropylmethyl)-2-oxoimidazolidin-1-yl)-N-(pyridin-4-ylmethyl)isonicotinamide]
260 | 178 to 180 | O=C(NCc1ccc(F)c(F)c1)c1ccnc(N2CCN(Cc3cccnc3)C2=O)c1 [Example 15.17, N-(3,4-difluorobenzyl)-2-(2-oxo-3-(pyridin-3-ylmethyl)imidazolidin-1-yl)isonicotinamide]
10 | 139 to 141 | O=C(NCc1nccs1)c1ccnc(N2CCN(Cc3ccc(C(F)(F)F)cc3)C2=O)c1 [Example 23, 2-(2-Oxo-3-(4-(trifluoromethyl)benzyl)imidazolidin-1-yl)-N-(thiazol-2-ylmethyl)isonicotinamide]
20 | 160 to 161 | Cc1cc(CNC(=O)c2ccnc(-n3cnn(Cc4ccc(F)c(F)c4)c3=O)c2)no1 [Example 24, 2-(1-(3,4-Difluorobenzyl)-5-oxo-1H-1,2,4-triazol-4(5H)-yl)-N-((5-methylisoxazol-3-yl)methyl)-isonicotinamide]
20 | 99 to 101 | O=C(NCc1ccccn1)c1ccnc(N2CCN(Cc3ccc(F)c(F)c3)C2=O)c1 [Example 25, 2-(3-(3,4-Difluorobenzyl)-2-oxoimidazolidin-1-yl)-N-(pyridin-2-ylmethyl)-isonicotinamide]
10 | 161 to 163 | O=C(NCc1ccccn1)c1ccnc(N2CCN(Cc3ccc(C(F)(F)F)cc3)C2=O)c1 [Example 26.12, 2-(2-Oxo-3-(4-(trifluoromethyl)benzyl)imidazolidin-1-yl)-N-(pyridin-2-ylmethyl)-isonicotinamide]
10 | 129 to 130 | Cc1cc(CNC(=O)c2ccnc(N3CCN(Cc4ccc(OC(F)(F)F)cc4)C3=O)c2)no1 [Example 26.13, N-((5-Methylisoxazol-3-yl)methyl)-2-(2-oxo-3-(4-(trifluoromethoxy)-benzyl)imidazolidin-1-yl)isonicotinamide]
50 | 123 to 125 | O=C(NCc1ccccn1)c1ccnc(N2CCN(Cc3ccc(OC(F)(F)F)cc3)C2=O)c1 [Example 26.15, 2-(2-Oxo-3-(4-(trifluoromethoxy)benzyl)imidazolidin-1-yl)-N-(pyridin-2-ylmethyl)-isonicotinamide]
10 | 153 to 155 | Cc1cc(CNC(=O)c2ccnc(N3CCN(Cc4ccc(C(F)(F)F)cc4)C3=O)c2)no1 [Example 26.18, N-((5-Methylisoxazol-3-yl)methyl)-2-(2-oxo-3-(4-(trifluoromethyl)-benzyl)imidazolidin-1-yl)isonicotinamide]
10 | 163 to 165 | O=C(NCc1cncs1)c1ccnc(N2CCN(Cc3ccc(C(F)(F)F)cc3)C2=O)c1 [Example 26.19, 2-(2-Oxo-3-(4-(trifluoromethyl)benzyl)imidazolidin-1-yl)-N-(thiazol-5-ylmethyl)-isonicotinamide]
10 | 198 to 200 | Cc1cc(CNC(=O)c2ccnc(-n3cnn(Cc4ccc(F)cc4)c3=O)c2)no1 [Example 26.22, 2-(1-(4-Fluorobenzyl)-5-oxo-1H-1,2,4-triazol-4(5H)-yl)-N-((5-methylisoxazol-3-yl)methyl)-isonicotinamide]
10 | 153 to 155 | Cc1cc(CNC(=O)c2ccnc(N3CCN(Cc4ccc(F)c(F)c4)C3=O)c2)no1 [Example 26.23, 2-(3-(3,4-Difluorobenzyl)-2-oxoimidazolidin-1-yl)-N-((5-methylisoxazol-3-yl)methyl)-isonicotinamide]
120 | 181 to 183 | O=C(NCc1ccccn1)c1ccnc(-n2cnn(Cc3ccc(F)cc3)c2=O)c1 [Example 26.27, 2-(1-(4-Fluorobenzyl)-5-oxo-1H-1,2,4-triazol-4(5H)-yl)-N-(pyridin-2-ylmethyl)-isonicotinamide]
30 |  | O=C(NCc1ccccn1)c1ccnc(-n2cnn(Cc3ccc(F)c(F)c3)c2=O)c1 [Example 26.29, 2-(1-(3,4-Difluorobenzyl)-5-oxo-1H-1,2,4-triazol-4(5H)-yl)-N-(pyridin-2-ylmethyl)-isonicotinamide]
1100 | 195 to 198 | NC(=O)c1ccnc(N2CCN(Cc3ccc(F)c(F)c3)C2=O)c1 [Example 26.30, 2-(3-(3,4-Difluorobenzyl)-2-oxoimidazolidin-1-yl)isonicotinamide]
180 | 167 to 169 | NC(=O)c1ccnc(N2CCN(Cc3ccc(C(F)(F)F)cc3)C2=O)c1 [Example 26.31, 2-(2-Oxo-3-(4-(Trifluoromethyl)-benzyl)imidazolidin-1-yl)isonicotinamide]
1200 | 175 to 176 | NC(=O)c1ccnc(N2CCN(Cc3ccc(OC(F)(F)F)cc3)C2=O)c1 [Example 26.32, 2-(2-Oxo-3-(4-(trifluoromethoxy)-benzyl)imidazolidin-1-yl)isonicotinamide]
